Results published in US20050085539A1, “Method of reducing toxicity of retinoids” (priority 2003, published 2005).

What was measured:
Assay type in all cases: in vivo, rat
vitamin A-deficient rats [1] = assay: Growth of vitamin A-deficient rats given the compounds orally in Wesson oil; details: for growth (weight change) of vitamin A-deficient rats: 83 pmoles/day oral in Wesson oil; for growth (weight change) of vitamin A-deficient rats / growth response of vitamin A-deficient rats: 5-day period; for activity relative to atRA in supporting growth of vitamin A-deficient rats: estimate from FIG. 4, 83 pmole/day, 5 days; for growth response of vitamin A-deficient rats: 166 pmoles/day oral in Wesson oil
Excerpt: The first test was to determine if the esterified compounds when given orally could restore normal growth of vitamin A-deficient rats. For this study, Sprague-Dawley, weanling rats were obtained from Harlan (Indianapolis, Ind.). They were fed the purified vitamin A-deficient diet previously described (Suda et al., 1970, J. Nutr. 100:1049-1052) supplemented with vitamins D, E and K (White et al., 1998, Proc. Natl. Acad. Sci. USA 95:13459-13464). When the animals stopped growing and began to lose weight, they were administered the indicated doses per day dissolved in Wesson oil. Controls were given the Wesson oil alone (vehicle group). The weight change over the 5-day study period was analyzed by ANOVA, followed by a matrix of pairwise comparison probabilities using four post-hoc tests when the overall P value was less then 0.05. The post-hoc comparison tests included: Turkey HSD multiple comparisons, Sheffe test, Fisher's least-significant-difference test and the Bonferroni adjustment test.
Weanling male rats were obtained from the Harlan Company and were housed individually in hanging wire cages and fed the vitamin A-deficient diet described previously (Suda et al., 1970, J. Nutr. 100:1049-1052). At approximately 70 days of age, the animals began to show a leveling off of growth and began to show weight loss. At this time, they were used for the following studies: They were given either 0.1 ml of Wesson oil (vehicle) or the indicated dose of atRA dissolved in the vehicle or one of the derivatives at the indicated dose dissolved in the vehicle. Body weights were recorded daily and plotted as cumulative weight gain or loss over the study period as indicated on the graphs. A daily dose of 83 pmoles (25 μg/day) of atRA is near the minimum amount needed to produce normal growth in […] rats as compared to the vehicle controls that continue to lose weight (FIG. 1). […] When the dose was increased to 50 μg/day of atRA or 59.5 μg/day of the t-butyl derivative, as expected, the growth response was identical.

vitamin A-deficient rats [2] = assay: as above; details: daily oral dose (25 μg/day)
normal male rats = assay: Acute toxicity of atRA versus t-butyl-RA in normal male rats
Method: Two independent toxicity studies were carried out with the t-butyl-RA derivative. […] However, the difference in testes weights between the atRA and t-butyl-RA groups was not statistically significant due to rather large biological variability.
We next examined the actute toxicity of the t-butyl derivative as compared to the atRA derivative in two independent trails. In these experiments, normal male rats weighing approximately 250-300 grams were used. They were individually housed in cages and given Purina lab chow as well as water ad libitum. […] This is an extremely large dose, and represents at least 3,600 times the amount of the t-butyl derivative needed to support a physiological growth response in vitamin A-deficient rats. […] Another indication of toxicity is testes weight as illustrated in FIG. 7.

[3] = 1 mmole/kg/day for 5 days, second study (FIG. 6)

Row | SMILES | growth (weight change) of vitamin A-deficient rats (vitamin A-deficient rats [1]) | daily dose near the minimum amount needed to produce normal growth (vitamin A-deficient rats [2]) [nmol] | activity relative to atRA in supporting growth of vitamin A-deficient rats (vitamin A-deficient rats [1]) | growth response of vitamin A-deficient rats (vitamin A-deficient rats [1]) | growth response of vitamin A-deficient rats (vitamin A-deficient rats [1]; listed as t-butyl derivative) | apparent toxicity / outward symptoms (normal male rats; [3]) | body weight change (normal male rats; [3]) | body weight change (normal male rats; 1 mmole/kg/day, 7 days, first study (FIG. 5))
1 | CC1=C(/C=C/C(C)=C/C=C/C(C)=C/C(=O)O)C(C)(C)CCC1 [atRA, all-trans-retinoic acid, reference compound] | superior to that of the cholesterol ester-fed group | ~83 |  |  |  |  |  | 
2 | CC1=C(/C=C/C(C)=C/C=C/C(C)=C/C(=O)O[C@H]2CC[C@@]3(C)C(=CCC4C3CC[C@@]3(C)C4CC[C@@H]3[C@H](C)CCCC(C)C)C2)C(C)(C)CCC1 (stereo partly drawn) [cholesterol ester, all-trans-retinoic acid cholesterol ester] | significantly enhanced growth compared to vehicle control animals |  | one-third |  |  |  |  | 
3 | CC1=C(/C=C/C(C)=C/C=C/C(C)=C/C(=O)OC(C)(C)C)C(C)(C)CCC1 [t-butyl-RA, all-trans-retinoic acid tert-butyl ester] | did not differ significantly from that of the group fed an equal molar amount of atRA |  | equal to atRA in potency and efficacy | equivalent | identical | no apparent toxicity | equal body weight accumulation | enabled continued growth
